One assay concerns the target PIM2 (Homo sapiens (Human), UniProt Q9P1W9). Description: Pim kinase binding activity, Caliper LC3000 microfluidic peptide phosphorylation assay, PIM2. The class given is biochemical. The settings on record: 10 μM ATP, 90 min, room temperature; read-out: PIM2 LC3K (KI). In short, it runs like this:
(§1)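 Pim-specific fluorescent peptide phosphorylated in 10 mM HEPES pH 7.2, 10 mM MgCl2, 0.01% Tween 20, 2 mM DTT for 90 min at room temperature, then stopped with EDTA. Product and substrate separated by microfluidic mobility shift; Ki derived from substrate conversion.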

The target in a further assay is PIM3 (Homo sapiens (Human), UniProt Q86V86). The assay is described as follows: Pim kinase binding activity, Caliper LC3000 microfluidic peptide phosphorylation assay, PIM3. The class given is biochemical. The conditions noted are these: 10 μM ATP, 90 min, room temperature; read-out: PIM3 LC3K (KI). The procedure, abridged: as §1
The next assay addresses PIM1 (Homo sapiens (Human), UniProt P11309). The assay is described as follows: biochemical. The class given is biochemical. The settings on record: 10 μM ATP, 90 min, room temperature; read-out: PIM1 LC3K (KI). In short, it runs like this: as §1
The next assay relates to BaF3 PIM1 cells. The assay is described as follows: In vitro cell proliferation potency assay (Cell Titer Glo), BaF3 PIM1 cells. Type of assay: cell-based, murine. The conditions noted are these: Mus musculus, BaF3, BaF3 cells transfected with PIM1, incubated overnight; read-out: Prolif BaF3_PIM 1 (IC50). On the procedure:
BaF3 parental line was obtained from the DSMZ repository. BaF3 lines transfected with PIM1 or PIM2 were generated. Mouse IL-3 was purchased from R&D Systems. G418 was purchased from Clontech. Media for BaF3 parental line contained RPMI, 10% FBS, 2 mM L-Glutamine, 2 ng/mL mIL-3. Media for BaF3 PIM1 & 2 lines contained RPMI, 10% FBS, 2 mM L-Glutamine, […]. Media for MM1.S (multiple myeloma cells) line contained RPMI, 10% FBS, 2 mM L-Glutamine.
BaF3, a murine interleukin-3 dependent pro-B cell line, parental cells, BaF3 PIM1 cells, BaF3 PIM2 cells, and MM1.S (multiple myeloma) cells were seeded at 2 k/well, 5 k/well, 5 k/well, and 10 k/well respectively, in a 384-well plate, at 45 μL/well. Test compound was added at 5 μL/well. BaF3 cells (parental and transfected) were incubated overnight, while MM1.S cells were incubated for 72 hours at 37° C., 5% CO2. CELL TITER GLO® Reagent (Promega) was added at 50 μL/well, the plates were incubated for 30 minutes, and their luminescence read on an HT Analyst. IC50/EC50 values for the test compound were calculated.
(ATP-based viability assays read luminescence as a measure of living cells.)

Chain of PIM1 (P11309 whole entry): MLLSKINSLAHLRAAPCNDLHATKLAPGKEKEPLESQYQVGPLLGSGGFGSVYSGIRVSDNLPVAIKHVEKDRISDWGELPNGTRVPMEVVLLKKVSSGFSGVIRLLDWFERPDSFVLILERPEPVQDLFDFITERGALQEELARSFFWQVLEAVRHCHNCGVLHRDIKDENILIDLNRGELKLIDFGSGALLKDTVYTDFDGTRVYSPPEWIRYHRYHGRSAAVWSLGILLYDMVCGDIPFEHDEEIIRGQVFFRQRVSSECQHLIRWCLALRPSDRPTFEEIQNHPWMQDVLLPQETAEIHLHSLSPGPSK
Chain of PIM2 (Q9P1W9 whole entry): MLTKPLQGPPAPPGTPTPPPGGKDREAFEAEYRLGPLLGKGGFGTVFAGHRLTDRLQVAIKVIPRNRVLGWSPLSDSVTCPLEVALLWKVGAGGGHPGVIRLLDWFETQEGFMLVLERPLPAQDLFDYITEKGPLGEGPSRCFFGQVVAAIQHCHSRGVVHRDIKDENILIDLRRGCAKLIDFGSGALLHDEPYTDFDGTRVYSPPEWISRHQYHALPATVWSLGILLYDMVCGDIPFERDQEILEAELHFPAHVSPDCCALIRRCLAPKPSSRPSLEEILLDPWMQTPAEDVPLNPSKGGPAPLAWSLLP

Take `c1cc(N2CCNCC2)nc(-n2ncc3cnc(-c4cncs4)cc32)c1` [Compound 109, 5-[1-(6-piperazin-1-yl-2-pyridyl)pyrazolo[4,3-c]pyridin-6-yl]thiazole]: the values for the Ki at PIM2, at PIM3 and at PIM1 were 4.03 nM, 0.285 nM and 0.476 nM, respectively. Moreover, in the assay with BaF3 PIM1 cells, the IC50 is 1500 nM.
For the compound `N[C@@H]1CCCN(c2cccc(-n3ncc4cnc(-c5cncs5)cc43)n2)C1` [Compound 110, (3R)-1-[6-(6-thiazol-5-ylpyrazolo[4,3-c]pyridin-1-yl)-2-pyridyl]piperidin-3-amine], the Ki at PIM2 came out at 4.5 nM; at PIM3, 0.37 nM; on PIM1, 0.504 nM. Moreover, the IC50 in the assay on BaF3 PIM1 cells was determined as 1700 nM.
`c1cc(N2CCCNCC2)nc(-n2ncc3cnc(-c4cncc(C5CC5)c4)cc32)c1` [Compound 112]: the Ki was found to be 3.87 nM on PIM2, 0.093 nM at PIM3 and 0.038 nM on PIM1. Moreover, in the assay on BaF3 PIM1 cells, the half-inhibitory concentration (IC50) came out at 490 nM.
For `CCc1cncc(-c2cc3c(cn2)cnn3-c2ccc(Cl)c(N3CCC[C@H](N)C3)n2)c1` [Compound 117, (S)-1-(3-chloro-6-(6-(5-ethylpyridin-3-yl)-1H-pyrazolo[4,3-c]pyridin-1-yl)pyridin-2-yl)piperidin-3-amine], in that order: 1.03 nM, 0.098 nM, 0.141 nM and 2900 nM.
For `Cc1cc(-c2cc3c(cn2)cnn3-c2cccc(N3CCC[C@H](N)C3)n2)sn1` [Compound 124, (3S)-1-[6-[6-(3-methylisothiazol-5-yl)pyrazolo[4,3-c]pyridin-1-yl]-2-pyridyl]piperidin-3-amine], in that order: 3.48 nM, 0.14 nM, 0.71 nM and 804 nM.
As to `COc1cncc(-c2cc3c(cn2)cnn3-c2cccc(N3CCNCC3)n2)n1` [Compound 130, 6-(6-methoxypyrazin-2-yl)-1-(6-piperazin-1-yl-2-pyridyl)pyrazolo[4,3-c]pyridine], the figures for the inhibitory constant (Ki) on PIM2, at PIM3 and at PIM1 were 1.87 nM, 0.068 nM and 0.113 nM, respectively. In addition, the IC50 in the assay with BaF3 PIM1 cells stood at 1500 nM.
For `CCn1cc(-c2cc3c(cn2)cnn3-c2cccc(N3CCC[C@H](N)C3)n2)cn1` [Compound 133, (3S)-1-[6-[6-(1-ethylpyrazol-4-yl)pyrazolo[4,3-c]pyridin-1-yl]-2-pyridyl]piperidin-3-amine], in that order: 4.56 nM, 0.155 nM, 0.867 nM and 3000 nM.
For `Cc1cncc(-c2cc3c(cn2)cnn3-c2cccc(N3CCC[C@H](N)C3)n2)n1` [Compound 137, (3S)-1-[6-[6-(6-methylpyrazin-2-yl)pyrazolo[4,3-c]pyridin-1-yl]-2-pyridyl]piperidin-3-amine], in that order: 0.499 nM, 0.038 nM, 0.159 nM and 2100 nM.
For the compound `CC(C)(C)n1cc(-c2cc3c(cn2)cnn3-c2cccc(N3CCCNCC3)n2)cn1` [Compound 145, 1-(6-(1,4-Diazepan-1-yl)pyridin-2-yl)-6-(1-tert-butyl-1H-pyrazol-4-yl)-1H-pyrazolo[4,3-c]pyridine], the Ki on PIM2 was determined as 10.5 nM; at PIM3, 0.636 nM; at PIM1 it was 0.362 nM. Further, the IC50 in the assay on BaF3 PIM1 cells stood at 2500 nM.
`OCCn1cc(-c2cc3c(cn2)cnn3-c2cccc(N3CCCNCC3)n2)cn1` [Compound 152, 2-(4-(1-(6-(1,4-Diazepan-1-yl)pyridin-2-yl)-1H-pyrazolo[4,3-c]pyridin-6-yl)-1H-pyrazol-1-yl)ethanol]: the inhibitory constant (Ki) on PIM2 is 5.38 nM; at PIM3, 0.134 nM; on PIM1 it was 0.215 nM. Besides, the IC50 with BaF3 PIM1 cells was found to be 1500 nM.
Turning to `c1cc(N2CCNCC2)nc(-n2ncc3cnc(-c4cncc(C5CC5)n4)cc32)c1` [Compound 165, 6-(6-cyclopropylpyrazin-2-yl)-1-(6-piperazin-1-yl-2-pyridyl)pyrazolo[4,3-c]pyridine], the Ki on PIM2 amounted to 1.14 nM; at PIM3, 0.174 nM; at PIM1, 0.063 nM. Moreover, in the assay on BaF3 PIM1 cells, the 50% inhibitory concentration (IC50) amounted to 139 nM.
For `Cc1cncc(-c2cc3c(cn2)cnn3-c2cccc(N3CCNC(C)C3)n2)n1` (stereo not shown) [Compound 169, 1-[6-(3-methylpiperazin-1-yl)-2-pyridyl]-6-(6-methylpyrazin-2-yl)pyrazolo[4,3-c]pyridine], in that order: 1.79 nM, 0.164 nM, 0.228 nM and 457 nM.
Regarding `CCc1cncc(-c2cc3c(cn2)cnn3-c2cccc(N3CCNCC(O)C3)n2)n1` (stereo not shown) [Compound 172, 1-[6-[6-(6-ethylpyrazin-2-yl)pyrazolo[4,3-c]pyridin-1-yl]-2-pyridyl]-1 4-diazepan-6-ol], the Ki is 1.47 nM at PIM2, 0.048 nM on PIM3 and 0.034 nM on PIM1. For the same compound, in the assay on BaF3 PIM1 cells, the 50% inhibitory concentration (IC50) was 111 nM.
Regarding `FC(F)(F)Cn1cc(-c2cc3c(cn2)cnn3-c2cncc(N3CCCNCC3)n2)cn1` [Compound 178, 1-(6-(1,4-Diazepan-1-yl)pyrazin-2-yl)-6-(1-(2,2,2-trifluoroethyl)-1H-pyrazol-4-yl)-1H-pyrazolo[4,3-c]pyridine], the Ki came to 6.68 nM at PIM2, 1.35 nM on PIM3 and 0.386 nM on PIM1. For the same compound, the IC50 in the assay on BaF3 PIM1 cells is 549 nM.
In the case of `Cc1cncc(-c2cc3c(cn2)cnn3-c2ccc(C3CC3)c(N3CCC[C@H](N)C3)n2)n1` [Compound 181, (S)-1-(3-cyclopropyl-6-(6-(6-methylpyrazin-2-yl)-1H-pyrazolo[4,3-c]pyridin-1-yl)pyridin-2-yl)piperidin-3-amine], the inhibition constant Ki came to 0.077 nM at PIM2, 0.019 nM at PIM3 and 0.014 nM on PIM1. The IC50 in the assay on BaF3 PIM1 cells is 214 nM.
As for `O[C@@H]1CNCCN(c2cccc(-n3ncc4cnc(-c5cnn(CC(F)(F)F)c5)cc43)n2)C1` [Compound 188, (R)-1-(6-(6-(1-(2,2,2-Trifluoroethyl)-1H-pyrazol-4-yl)-1H-pyrazolo[4,3-c]pyridin-1-yl)-pyridin-2-yl)-1,4-diazepan-6-ol], the inhibition constant (Ki) at PIM2 came out at 4.64 nM; at PIM3, 0.611 nM; on PIM1, 0.173 nM. For the same compound, the half-maximal inhibitory concentration (IC50) with BaF3 PIM1 cells was 418 nM.
`O[C@H]1CNCCN(c2cccc(-n3ncc4cnc(-c5cnn(CC(F)(F)F)c5)cc43)n2)C1` [Compound 189, (S)-1-(6-(6-(1-(2,2,2-Trifluoroethyl)-1H-pyrazol-4-yl)-1H-pyrazolo[4,3-c]pyridin-1-yl)-pyridin-2-yl)-1,4-diazepan-6-ol]: the results for the Ki on PIM2, on PIM3 and on PIM1 were 0.373 nM, 0.089 nM and 0.038 nM, respectively. In addition, in the assay with BaF3 PIM1 cells, the IC50 amounted to 181 nM.
With `Cc1cncc(-c2cc3c(cn2)cnn3-c2cccc(NC3CCNCC3)n2)n1` [Compound 190, 6-[6-(6-methylpyrazin-2-yl)pyrazolo[4,3-c]pyridin-1-yl]-N-(4-piperidyl)pyridin-2-amine], the Ki at PIM2 is 1.28 nM; on PIM3, 0.023 nM; at PIM1, 0.06 nM. Also, the IC50 in the assay with BaF3 PIM1 cells came out at 235 nM.
Turning to `Cc1cncc(-c2cc3c(cn2)cnn3-c2cccc(N3C[C@@H](N)C[C@H](F)C3)n2)n1` [Compound 192, (3S,5S)-5-fluoro-1-[6-[6-(6-methylpyrazin-2-yl)pyrazolo[4,3-c]pyridin-1-yl]-2-pyridyl]piperidin-3-amine], the results for the inhibition constant Ki on PIM2, on PIM3 and on PIM1 were 3.35 nM, 0.21 nM and 0.428 nM, respectively. In the assay with BaF3 PIM1 cells, the IC50 was found to be 1700 nM.
As to `Cc1cncc(-c2cc3c(cn2)cnn3-c2cccc(N3CCC(N)CC3)n2)n1` [Compound 194, 1-[6-[6-(6-methylpyrazin-2-yl)pyrazolo[4,3-c]pyridin-1-yl]-2-pyridyl]piperidin-4-amine], the values for the inhibitory constant (Ki) at PIM2, on PIM3 and on PIM1 were 3.12 nM, 0.125 nM and 0.243 nM, respectively. Moreover, in the assay with BaF3 PIM1 cells, the IC50 was found to be 1500 nM.
`Cc1cncc(-c2cc3c(cn2)cnn3-c2ccc(C3CC3)c(N3CCCNCC3)n2)n1` [Compound 197, 1-(5-cyclopropyl-6-(1,4-diazepan-1-yl)pyridin-2-yl)-6-(6-methylpyrazin-2-yl)-1H-pyrazolo[4,3-c]pyridine]: the figures for the Ki at PIM2, at PIM3 and on PIM1 were 1.22 nM, 0.046 nM and 0.055 nM, respectively. The IC50 with BaF3 PIM1 cells stood at 2200 nM.
Take `Cc1cncc(-c2cc3c(cn2)cnn3-c2cccc(N3C[C@@H](N)C[C@@H](F)C3)n2)n1` [Compound 198, (3S,5R)-5-fluoro-1-[6-[6-(6-methylpyrazin-2-yl)pyrazolo[4,3-c]pyridin-1-yl]-2-pyridyl]piperidin-3-amine]: the inhibition constant Ki came to 2.55 nM at PIM2, 0.089 nM at PIM3 and 0.117 nM at PIM1. The IC50 in the assay on BaF3 PIM1 cells was 1100 nM.

By Ki is commonly meant a dissociation constant, usually derived from enzyme kinetics or from competition with a known ligand. As usually defined, the IC50 is the point on the concentration scale where inhibition reaches its midpoint.

(Values after patent US9434725B2, “5-azaindazole compounds and methods of use” (priority 2012, dated 2016).)
